Results published in patent US9708336B2, “Metallo-beta-lactamase inhibitors” (priority 2014, dated 2017).
Where two headings read alike, the source gives them in different places.

Experiments:
IMP-1 = IMP-1 (Serratia marcescens, UniProt P52699); experiment: biochemical; format: biochemical; conditions: read-out: IMP-1 IC50
NDM-1 = NDM-1 (Klebsiella pneumoniae, UniProt C7C422); experiment: biochemical; format: biochemical; conditions: read-out: NDM-1 IC50
[1] = tested on: Klebsiella pneumoniae expressing VIM-1 (IHMA599644); experiment: Antibiotic potentiation activity: synergistic concentration (MITC95) with imipenem, OD600 growth; format: cell-based; conditions: for Klebsiella pneumoniae expressing VIM-1 (IHMA 599644) MITC95: concentration giving 95% inhibition of bacterial growth
Summary of the method: (§1)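 Spectrophotometric growth readings were taken following 22–24 h at 35 °C. Before that, organisms in 1.1× CAMHB were mixed with imipenem, used at 4 μg/ml in assay, and test compound.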

[2] = tested on: Serratia marcescens expressing IMP-1 (CL5741); experiment: as above; format: cell-based; conditions: for Serratia marcescens expressing IMP-1 (CL5741) MITC95: concentration giving 95% inhibition of bacterial growth
Summary of the method: as §1

[3] = tested on: Escherichia coli expressing NDM-1 (CLB30016); experiment: as above; format: cell-based; conditions: for Escherichia coli expressing NDM-1 (CLB 30016) MITC95: concentration giving 95% inhibition of bacterial growth
Summary of the method: as §1

VIM-1 = VIM-1 (Pseudomonas aeruginosa (strain ATCC 15692 / DSM 22644 / CIP 104116 / JCM 14847 / LMG 12228 / 1C / PRS 101 / PAO1), UniProt A0A0F7KYQ8); experiment: Enzyme activity: determination of IC50, fluorescence assay with CCF2-FA substrate (VIM-1); format: biochemical
[4] = fluorescence assay with CCF2-FA substrate
[5] = fluorescence assay with CCF2-FA substrate, read-out: VIM-1 IC50
[6] = IMP-1 enzyme, CCF2-FA substrate
[7] = NDM-1 enzyme, CCF2-FA substrate
[8] = Klebsiella pneumoniae IHMA599644 (VIM-1), 95% growth inhibition
[9] = Serratia marcescens CL5741 (IMP-1), 95% growth inhibition
[10] = (CLB30016, NDM-1), 95% growth inhibition
[11] = VIM-1 enzyme, CCF2-FA substrate, read-out: VIM-1 IC50
[12] = IHMA599644 (VIM-1), 95% inhibition of bacterial growth
[13] = CL5741 (IMP-1), 95% inhibition of bacterial growth
[14] = CLB30016 (NDM-1), 95% inhibition of bacterial growth
[15] = IMP-1 enzyme, CCF2-FA fluorescence assay
[16] = NDM-1 enzyme, CCF2-FA fluorescence assay
[17] = Klebsiella pneumoniae expressing VIM-1 (IHMA599644), 95% growth inhibition
[18] = Serratia marcescens expressing IMP-1 (CL5741), 95% growth inhibition
[19] = Escherichia coli expressing NDM-1 (CLB30016), 95% growth inhibition
[20] = VIM-1 enzyme, CCF2-FA fluorescence assay, read-out: VIM-1 IC50
[21] = VIM-1 IC50, VIM-1 enzyme, CCF2-FA substrate

NDM-1, sequence (C7C422 whole entry, looked up, species assumed): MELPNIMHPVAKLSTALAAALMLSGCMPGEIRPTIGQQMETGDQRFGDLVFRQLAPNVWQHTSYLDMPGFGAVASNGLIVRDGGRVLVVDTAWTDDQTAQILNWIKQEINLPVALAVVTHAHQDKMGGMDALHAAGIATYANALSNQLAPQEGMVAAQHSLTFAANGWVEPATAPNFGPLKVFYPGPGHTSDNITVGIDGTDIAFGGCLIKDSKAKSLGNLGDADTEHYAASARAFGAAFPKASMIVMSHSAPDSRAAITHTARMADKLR
IMP-1, sequence (P52699 whole entry, looked up): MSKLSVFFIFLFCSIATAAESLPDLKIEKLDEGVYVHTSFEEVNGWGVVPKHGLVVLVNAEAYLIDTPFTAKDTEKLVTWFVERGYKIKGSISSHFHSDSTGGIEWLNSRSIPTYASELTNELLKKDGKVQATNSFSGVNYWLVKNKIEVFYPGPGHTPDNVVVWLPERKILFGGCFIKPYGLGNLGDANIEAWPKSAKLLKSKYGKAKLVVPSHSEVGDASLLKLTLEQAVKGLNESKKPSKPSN

SMILES | IC50 (IMP-1; [4]) | IC50 (NDM-1; [4]) | IC50 (IMP-1; [6]) | IC50 (NDM-1; [7]) | Klebsiella pneumoniae MITC95 [1, 8] | Serratia marcescens MITC95 [2, 9] | Escherichia coli MITC95 [3, 10] | IC50 (VIM-1; [11]) | further results
NS(=O)(=O)c1nccc(N2CCC(n3ccnc3)CC2)c1-c1nnn[nH]1 [Example 228, 4-[4-(1H-imidazol-1-yl)piperidin-1-yl]-3-(1H-tetrazol-5-yl)pyridine-2-sulfonamide] | 3210 nM | 372 nM | – | – | – | – | – | – | Klebsiella pneumoniae expressing VIM-1 (IHMA 599644) MITC95 [1]: 37.5 µM; Serratia marcescens expressing IMP-1 (CL5741) MITC95 [2]: 37.5 µM; Escherichia coli expressing NDM-1 (CLB 30016) MITC95 [3]: 1.563 µM; IC50 (VIM-1; [5]): 343 nM
NCC(CN)c1ccc(-c2cccc(S(N)(=O)=O)c2-c2nnn[nH]2)cc1 [Example 509, 4′-(1,3-Diaminopropan-2-yl)-2-(1H-tetrazol-5-yl)-[1,1′-biphenyl]-3-sulfonamide] | – | – | 929 nM | 57.4 nM | 50 µM | 12.5 µM | 1.563 µM | 396 nM | –
NS(=O)(=O)c1c(C(F)(F)F)ccc(N2CCC(N3CCNCC3)CC2)c1-c1nnn[nH]1 [Example 780, 3-(4-piperazin-1-yl-1-piperidyl)-2-(1H-tetrazol-5-yl)-6-(trifluoromethyl) benzenesulfonamide] | 31.7 nM | 17.7 nM | – | – | – | – | – | – | Klebsiella pneumoniae MITC95 [1, 12]: 2.344 µM; Serratia marcescens MITC95 [2, 13]: 1.563 µM; Escherichia coli MITC95 [3, 14]: 1.563 µM; IC50 (VIM-1; [5]): 0.274 nM
CNC(=O)CNCc1ccc(-c2cccc(S(N)(=O)=O)c2-c2nnn[nH]2)cc1 [Example 371, N-methyl-N~2~-{[3′-sulfamoyl-2′-(1H-tetrazol-5-yl)biphenyl-4-yl]methyl}glycinamide] | – | – | – | – | – | – | – | – | IC50 (IMP-1; [15]): 78.3 nM; IC50 (NDM-1; [16]): 8.5 nM; Klebsiella pneumoniae MITC95 [1, 17]: 100 µM; Serratia marcescens MITC95 [2, 18]: 2.344 µM; Escherichia coli MITC95 [3, 19]: 0.7813 µM; IC50 (VIM-1; [20]): 370 nM
CNCC(C)NCc1ccc(-c2cccc(S(N)(=O)=O)c2-c2nn[nH]n2)cc1 (stereo not drawn) [Example 359, 4′-({[1-methyl-2-(methylamino)ethyl]amino}methyl)-2-(2H-tetrazol-5-yl)biphenyl-3-sulfonamide] | – | – | – | – | – | – | – | – | IC50 (IMP-1; [15]): 104 nM; IC50 (NDM-1; [16]): 13 nM; Klebsiella pneumoniae MITC95 [1, 17]: >200 µM; Serratia marcescens MITC95 [2, 18]: 3.125 µM; Escherichia coli MITC95 [3, 19]: 4.688 µM; IC50 (VIM-1; [20]): 1870 nM
NS(=O)(=O)c1cccc(-c2ccc(CN3CCNC(=O)C3)cc2)c1-c1nnn[nH]1 [Example 386, 4′-[(3-oxopiperazin-1-yl)methyl]-2-(1H-tetrazol-5-yl)biphenyl-3-sulfonamide] | – | – | – | – | – | – | – | – | IC50 (IMP-1; [15]): 32 nM; IC50 (NDM-1; [16]): 3.23 nM; Klebsiella pneumoniae MITC95 [1, 17]: >200 µM; Serratia marcescens MITC95 [2, 18]: 1.563 µM; Escherichia coli MITC95 [3, 19]: 6.25 µM; IC50 (VIM-1; [20]): 120 nM
NS(=O)(=O)c1c(C(F)(F)F)ccc(-c2ccc(C3CCN(C4CCNC4)CC3)cc2)c1-c1nnn[nH]1 (stereo not drawn) [Example 789, 4′-(1-pyrrolidin-3-ylpiperidin-4-yl)-2-(1H-tetrazol-5-yl)-4-(trifluoromethyl)biphenyl-3-sulfonamide] | 0.472 nM | 2.4 nM | – | – | – | – | – | – | Klebsiella pneumoniae MITC95 [1, 12]: 100 µM; Serratia marcescens MITC95 [2, 13]: 3.125 µM; Escherichia coli MITC95 [3, 14]: 3.125 µM; IC50 (VIM-1; [5]): 16.5 nM
NS(=O)(=O)c1c(C(F)(F)F)ccc(N2C[C@H](O)C[C@@H](O)C2)c1-c1nnn[nH]1 [Example 666, 3-[(3R,5R)-3,5-dihydroxypiperidin-1-yl]-2-(1H-tetrazol-5-yl)-6-(trifluoromethyl)benzenesulfonamide] | – | – | 150 nM | 57 nM | 12.5 µM | 4.688 µM | 2.344 µM | 14.7 nM | –
N#Cc1cccc2ncc(-c3cccc(S(N)(=O)=O)c3-c3nnn[nH]3)n12 [Example 649, 3-(5-cyanoimidazo[1,2-a]pyridin-3-yl)-2-(1H-tetrazol-5-yl)benzenesulfonamide] | – | – | 48.4 nM | 2.87 nM | 12.5 µM | 3.125 µM | 2.344 µM | 12.8 nM | –
NC[C@H]1CC[C@H](Cc2ccc(-c3ccc(N)nc3)c(-c3nnn[nH]3)c2S(N)(=O)=O)CC1 [Example 579, 6-(((1r,4r)-4-(aminomethyl)cyclohexyl)methyl)-3-(6-aminopyridin-3-yl)-2-(1H-tetrazol-5-yl)benzenesulfonamide] | – | – | 17.8 nM | 1.64 nM | 12.5 µM | 3.125 µM | 0.7813 µM | – | IC50 (VIM-1; [21]): 3.12 nM
NC[C@H]1CC[C@H](c2ccc(CC3CCNCC3)c(S(N)(=O)=O)c2-c2nn[nH]n2)CC1 [Example 589, 3-((1r,4r)-4-(aminomethyl)cyclohexyl)-6-(piperidin-4-ylmethyl)-2-(2H-tetrazol-5-yl)benzenesulfonamide] | – | – | 146 nM | 8.75 nM | 9.375 µM | 4.688 µM | 1.172 µM | 93.9 nM | –
NCCNC1CCC(c2ccc(C(F)(F)F)c(S(N)(=O)=O)c2-c2nnn[nH]2)CC1 (stereo not drawn) [Example 827, 3-[4-(trans-2-aminoethylamino)cyclohexyl]-2-(1H-tetrazol-5-yl)-6-(trifluoromethyl)benzenesulfonamide] | 22.6 nM | 5.72 nM | – | – | – | – | – | – | Klebsiella pneumoniae MITC95 [1, 12]: 1.172 µM; Serratia marcescens MITC95 [2, 13]: 0.3906 µM; Escherichia coli MITC95 [3, 14]: 0.3906 µM; IC50 (VIM-1; VIM-1 IC50, fluorescence assay with CCF2-FA substrate): 2.59 nM
NS(=O)(=O)c1nccc(N2CCC(Cn3ccnc3)CC2)c1-c1nnn[nH]1 [Example 233, 4-[4-(1H-imidazol-1-ylmethyl)piperidin-1-yl]-3-(1H-tetrazol-5-yl)pyridine-2-sulfonamide] | 195 nM | 60.9 nM | – | – | – | – | – | – | Klebsiella pneumoniae expressing VIM-1 (IHMA 599644) MITC95 [1]: 37.5 µM; Serratia marcescens expressing IMP-1 (CL5741) MITC95 [2]: 6.25 µM; Escherichia coli expressing NDM-1 (CLB 30016) MITC95 [3]: 0.7813 µM; IC50 (VIM-1; [5]): 97.6 nM
NS(=O)(=O)c1c(C(F)(F)F)ccc(-c2ccc(C3CCCN3)cc2)c1-c1nnn[nH]1 (stereo not drawn) [Example 716, 4′-pyrrolidin-2-yl-2-(1H-tetrazol-5-yl)-4-(trifluoromethyl)biphenyl-3-sulfonamide] | – | – | 5.43 nM | 8.07 nM | 25 µM | 3.125 µM | 6.25 µM | – | IC50 (VIM-1; [21]): 2.79 nM
NS(=O)(=O)c1nccc(N2CCCC(Cc3cccnc3)C2)c1-c1nnn[nH]1 (stereo not drawn) [Example 243, 4-[3-(pyridin-3-ylmethyl)piperidin-1-yl]-3-(1H-tetrazol-5-yl)pyridine-2-sulfonamide] | – | – | – | – | – | – | – | – | IC50 (IMP-1; [15]): 1510 nM; IC50 (NDM-1; [16]): 67.1 nM; Klebsiella pneumoniae MITC95 [1, 17]: >200 µM; Serratia marcescens MITC95 [2, 18]: 100 µM; Escherichia coli MITC95 [3, 19]: 18.75 µM; IC50 (VIM-1; [20]): 204 nM
NS(=O)(=O)c1c(C(F)(F)F)ccc(-c2ccc(C3CCN(CC4CCNC4)CC3)cc2)c1-c1nnn[nH]1 (stereo not drawn) [Example 795, 4′-[1-(pyrrolidin-3-ylmethyl)piperidin-4-yl]-2-(1H-tetrazol-5-yl)-4-(trifluoromethyl)biphenyl-3-sulfonamide] | 1.1 nM | 5.23 nM | – | – | – | – | – | – | Klebsiella pneumoniae MITC95 [1, 12]: 25 µM; Serratia marcescens MITC95 [2, 13]: 3.125 µM; Escherichia coli MITC95 [3, 14]: 1.563 µM; IC50 (VIM-1; [5]): 6.57 nM
NCC[C@H]1CC[C@@H](c2ccc(C(F)(F)F)c(S(N)(=O)=O)c2-c2nnn[nH]2)CC1 [Example 498, 3-(cis 4-(2-aminoethyl)cyclohexyl)-2-(1H-tetrazol-5-yl)-6-(trifluoromethyl)benzenesulfonamide] | – | – | 5.5 nM | 2.15 nM | 4.688 µM | 0.1953 µM | 0.3906 µM | – | IC50 (VIM-1; [21]): 6.37 nM
Nc1ccc(-c2ccc(CCC3CCNCC3)c(S(N)(=O)=O)c2-c2nnn[nH]2)cn1 [Example 581, 3-(6-aminopyridin-3-yl)-6-(2-(piperidin-4-yl)ethyl)-2-(1H-tetrazol-5-yl)benzenesulfonamide] | – | – | 268 nM | 8.23 nM | 12.5 µM | 6.25 µM | 0.3906 µM | 36.8 nM | –
NC1(c2ccc(-c3ccc(C(F)(F)F)c(S(N)(=O)=O)c3-c3nnn[nH]3)cc2)CCOC1 (stereo not drawn) [Example 730, 4′-(3-aminotetrahydrofuran-3-yl)-2-(1H-tetrazol-5-yl)-4-(trifluoromethyl)biphenyl-3-sulfonamide] | – | – | 3.57 nM | 2.8 nM | 50 µM | 3.125 µM | 3.125 µM | 6 nM | –
